Data: patent publication US8354372B2 (priority 2006, dated 2013)

Columns and labels:
[1] = target: nAChR combination α3α5β4 expressed in Xenopus oocytes; test: cell-based or functional assay
[2] = target: endoproteinase Glu-C (Endo Glu-C) (Staphylococcus aureus, UniProt P0C1U8); conditions: isolated enzyme glu c, pH 8
[3] = human, plasma
[4] = target: α4β2 nAChR (Homo sapiens, UniProt P17787+P43681); assay type: cell-based
[5] = target: α4β4 nAChR (Homo sapiens, UniProt P30926+P43681); assay type: cell-based
Sequence of α4β4 nAChR (P43681 29-627 limits assumed): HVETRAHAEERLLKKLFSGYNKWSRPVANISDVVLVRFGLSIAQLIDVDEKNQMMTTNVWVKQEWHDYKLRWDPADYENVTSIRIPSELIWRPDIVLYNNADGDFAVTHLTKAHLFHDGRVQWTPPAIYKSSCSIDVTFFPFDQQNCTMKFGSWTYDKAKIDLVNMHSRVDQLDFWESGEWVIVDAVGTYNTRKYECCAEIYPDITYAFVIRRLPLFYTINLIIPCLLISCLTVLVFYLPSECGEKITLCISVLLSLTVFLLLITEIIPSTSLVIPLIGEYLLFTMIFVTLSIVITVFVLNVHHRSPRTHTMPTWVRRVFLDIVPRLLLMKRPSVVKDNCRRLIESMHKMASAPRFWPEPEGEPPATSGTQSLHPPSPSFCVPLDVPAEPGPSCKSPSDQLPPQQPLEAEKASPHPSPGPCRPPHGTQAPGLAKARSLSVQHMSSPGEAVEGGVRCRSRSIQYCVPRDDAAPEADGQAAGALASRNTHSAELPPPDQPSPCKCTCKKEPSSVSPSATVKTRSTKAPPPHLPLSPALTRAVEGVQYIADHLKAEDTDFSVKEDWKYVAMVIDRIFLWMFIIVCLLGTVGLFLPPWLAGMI
Sequence of α4β4 nAChR (P30926 22-498 limits assumed): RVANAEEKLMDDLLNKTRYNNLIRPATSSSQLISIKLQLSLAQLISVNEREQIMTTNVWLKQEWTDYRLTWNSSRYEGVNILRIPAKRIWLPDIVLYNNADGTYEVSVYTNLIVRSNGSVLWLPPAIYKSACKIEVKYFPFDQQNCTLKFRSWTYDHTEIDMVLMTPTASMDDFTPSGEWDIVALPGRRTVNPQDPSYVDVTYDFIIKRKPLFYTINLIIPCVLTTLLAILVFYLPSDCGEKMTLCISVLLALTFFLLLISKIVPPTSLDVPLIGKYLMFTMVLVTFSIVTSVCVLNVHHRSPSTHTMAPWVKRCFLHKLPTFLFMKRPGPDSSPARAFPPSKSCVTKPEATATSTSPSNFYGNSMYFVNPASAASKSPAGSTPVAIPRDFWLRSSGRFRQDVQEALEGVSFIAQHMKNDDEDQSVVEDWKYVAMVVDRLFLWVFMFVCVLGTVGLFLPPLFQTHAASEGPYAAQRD

[6] = target: homopentameric neuronal nAChR, α7 (Homo sapiens, UniProt P36544); assay type: cell-based; conditions: 10 µM
Sequence of homopentameric neuronal nAChR, α7 (P36544 23-502 limits assumed): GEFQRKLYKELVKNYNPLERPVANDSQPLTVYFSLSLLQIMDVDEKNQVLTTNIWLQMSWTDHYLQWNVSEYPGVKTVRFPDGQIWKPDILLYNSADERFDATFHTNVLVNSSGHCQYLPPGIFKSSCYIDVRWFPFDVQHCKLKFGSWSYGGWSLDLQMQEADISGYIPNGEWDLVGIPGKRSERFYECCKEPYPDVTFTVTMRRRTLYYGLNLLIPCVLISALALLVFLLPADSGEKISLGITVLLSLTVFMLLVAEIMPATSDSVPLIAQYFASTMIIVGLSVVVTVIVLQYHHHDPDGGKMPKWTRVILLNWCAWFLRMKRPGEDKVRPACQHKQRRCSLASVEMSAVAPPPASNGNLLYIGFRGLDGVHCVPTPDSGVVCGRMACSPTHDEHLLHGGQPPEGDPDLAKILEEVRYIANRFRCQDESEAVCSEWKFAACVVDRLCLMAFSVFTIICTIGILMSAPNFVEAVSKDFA

[7] = target: α3α5β4 nAChR (Homo sapiens, UniProt P30926+P32297); assay type: cell-based
[8] = target: α3α6β2 nAChR (Homo sapiens, UniProt P17787+P32297+Q15825); assay type: cell-based; conditions: 30 µM
Sequence of α3α6β2 nAChR (P32297 32-505 limits assumed): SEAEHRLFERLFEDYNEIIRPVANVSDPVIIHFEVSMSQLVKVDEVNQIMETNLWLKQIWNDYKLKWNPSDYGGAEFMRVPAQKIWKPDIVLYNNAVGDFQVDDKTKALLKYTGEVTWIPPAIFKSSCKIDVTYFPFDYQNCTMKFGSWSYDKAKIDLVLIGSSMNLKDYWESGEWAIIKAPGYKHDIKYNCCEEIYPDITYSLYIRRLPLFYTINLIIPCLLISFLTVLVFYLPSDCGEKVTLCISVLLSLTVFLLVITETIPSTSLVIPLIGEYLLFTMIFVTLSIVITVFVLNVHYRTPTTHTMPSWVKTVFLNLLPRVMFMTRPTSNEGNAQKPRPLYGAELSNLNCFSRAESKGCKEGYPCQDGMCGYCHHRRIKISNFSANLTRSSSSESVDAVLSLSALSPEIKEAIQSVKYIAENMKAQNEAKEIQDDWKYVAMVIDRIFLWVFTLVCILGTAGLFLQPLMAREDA
Sequence of α3α6β2 nAChR (Q15825 26-494 limits assumed): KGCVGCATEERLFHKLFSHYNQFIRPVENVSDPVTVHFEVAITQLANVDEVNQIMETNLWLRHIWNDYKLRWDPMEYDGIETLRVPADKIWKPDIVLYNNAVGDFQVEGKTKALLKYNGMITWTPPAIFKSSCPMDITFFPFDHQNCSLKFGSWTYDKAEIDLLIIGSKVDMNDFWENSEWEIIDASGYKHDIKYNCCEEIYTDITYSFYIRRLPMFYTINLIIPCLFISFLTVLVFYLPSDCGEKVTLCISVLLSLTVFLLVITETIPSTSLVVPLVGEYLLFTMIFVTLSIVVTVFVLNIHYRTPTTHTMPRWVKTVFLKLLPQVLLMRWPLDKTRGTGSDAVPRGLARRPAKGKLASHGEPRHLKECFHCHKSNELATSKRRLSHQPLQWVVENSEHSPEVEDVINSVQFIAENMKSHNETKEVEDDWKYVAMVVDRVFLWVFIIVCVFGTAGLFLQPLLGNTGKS
Sequence of α3α6β2 nAChR (P17787 26-502 limits assumed): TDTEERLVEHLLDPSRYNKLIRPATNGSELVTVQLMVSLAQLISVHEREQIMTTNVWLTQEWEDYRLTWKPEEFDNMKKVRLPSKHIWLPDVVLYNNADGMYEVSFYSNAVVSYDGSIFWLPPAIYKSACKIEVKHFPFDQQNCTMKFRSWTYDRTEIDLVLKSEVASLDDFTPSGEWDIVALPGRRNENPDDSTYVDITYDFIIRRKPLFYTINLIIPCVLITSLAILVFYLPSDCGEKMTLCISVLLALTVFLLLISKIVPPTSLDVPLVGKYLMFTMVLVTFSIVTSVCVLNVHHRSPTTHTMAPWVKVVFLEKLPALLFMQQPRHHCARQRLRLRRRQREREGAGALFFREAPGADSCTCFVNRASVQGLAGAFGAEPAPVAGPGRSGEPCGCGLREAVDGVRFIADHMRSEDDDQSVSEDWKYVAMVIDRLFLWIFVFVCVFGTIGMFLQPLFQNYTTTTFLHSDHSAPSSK

[9] = tested on: α3-containing nAChRs; assay type: cell-based
[10] = target: α3, β4 subtype of the nAchR (Rattus norvegicus, UniProt P04757+P12392); conditions: cited from earlier work
Sequence of α3, β4 subtype of the nAchR (P04757 26-499 limits assumed): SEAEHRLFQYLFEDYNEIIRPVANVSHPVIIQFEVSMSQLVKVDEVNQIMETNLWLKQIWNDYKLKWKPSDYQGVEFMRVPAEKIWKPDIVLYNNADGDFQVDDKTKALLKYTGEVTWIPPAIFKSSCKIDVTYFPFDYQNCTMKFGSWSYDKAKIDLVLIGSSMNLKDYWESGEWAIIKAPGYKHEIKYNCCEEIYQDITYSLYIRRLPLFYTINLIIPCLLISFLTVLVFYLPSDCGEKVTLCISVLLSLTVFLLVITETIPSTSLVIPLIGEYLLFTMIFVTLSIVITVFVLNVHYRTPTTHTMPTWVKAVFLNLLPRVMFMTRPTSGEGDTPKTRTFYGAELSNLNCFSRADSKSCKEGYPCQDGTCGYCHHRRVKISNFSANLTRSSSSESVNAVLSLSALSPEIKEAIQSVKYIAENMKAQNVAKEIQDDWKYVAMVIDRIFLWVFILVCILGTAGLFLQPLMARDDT
Sequence of α3, β4 subtype of the nAchR (P12392 21-495 limits assumed): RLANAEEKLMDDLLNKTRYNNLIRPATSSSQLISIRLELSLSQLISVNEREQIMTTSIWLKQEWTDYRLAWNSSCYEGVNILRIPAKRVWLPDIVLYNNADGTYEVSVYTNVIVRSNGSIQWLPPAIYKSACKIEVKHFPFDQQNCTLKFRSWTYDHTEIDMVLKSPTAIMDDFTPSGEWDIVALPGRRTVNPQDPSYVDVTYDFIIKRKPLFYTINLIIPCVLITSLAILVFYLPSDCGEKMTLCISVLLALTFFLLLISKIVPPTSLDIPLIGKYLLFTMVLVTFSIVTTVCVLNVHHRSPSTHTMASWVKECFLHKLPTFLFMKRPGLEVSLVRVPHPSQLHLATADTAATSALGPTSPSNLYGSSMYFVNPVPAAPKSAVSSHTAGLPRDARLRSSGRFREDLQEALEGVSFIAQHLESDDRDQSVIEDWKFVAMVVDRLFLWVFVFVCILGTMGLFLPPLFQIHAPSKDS

[11] = tested on: α9, α10 nAchR; conditions: cited from earlier work
[12] = tested on: streptozotocin-induced diabetic rat; conditions: in vivo; cited from earlier work
[13] = tested on: rat models of human neuropathic pain; conditions: in vivo; cited from earlier work
[14] = tested on: unmyelinated C-fiber axons in isolated segments of peripheral human nerves; conditions: cited from earlier work
[15] = in vivo; cited from earlier work
[16] = tested on: animal model of inflammatory pain; conditions: in vivo; cited from earlier work
[17] = tested on: bovine adrenal chromaffin cells; assay type: cell-based
[18] = tested on: CCI-rats; conditions: rat, in vivo, po

Sequence of α4β2 nAChR (P43681 29-627 limits assumed): as the sequence (P43681 29-627 limits assumed) above
Sequence of α4β2 nAChR (P17787 26-502 limits assumed): as the sequence (P17787 26-502 limits assumed) above
Sequence of endoproteinase Glu-C (Endo Glu-C) (P0C1U8 69-336 limits assumed): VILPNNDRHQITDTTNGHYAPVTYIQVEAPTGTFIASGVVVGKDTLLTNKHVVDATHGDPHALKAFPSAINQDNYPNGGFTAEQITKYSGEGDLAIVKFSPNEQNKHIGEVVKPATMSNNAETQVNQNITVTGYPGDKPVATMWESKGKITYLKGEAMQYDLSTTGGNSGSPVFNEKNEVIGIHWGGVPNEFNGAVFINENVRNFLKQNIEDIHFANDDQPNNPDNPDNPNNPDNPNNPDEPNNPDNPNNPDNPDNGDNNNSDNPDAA

α-conotoxin Vc1.1 (peptide)
potency to inhibit ACh-evoked current (fold lower potency) [1]: > 5

CC(C)C[C@@H]1NC(=O)[C@H](CC(N)=O)NC(=O)[C@H](CO)NC(=O)[C@H](Cc2cnc[nH]2)NC(=O)[C@H](CCC(=O)O)NC(=O)[C@H](CC(C)C)NC(=O)[C@H](Cc2cnc[nH]2)NC(=O)[C@@H]2CSSC[C@H](NC(=O)CN)C(=O)N[C@@H](CSSC[C@@H](C(N)=O)NC1=O)C(=O)N[C@@H](CO)C(=O)N[C@@H](CC(N)=O)C(=O)N1CCC[C@H]1C(=O)N[C@@H](C(C)C)C(=O)N2 [MII]
half-life [2]: ~10 h | half-life [3]: ~16 h

Vc1.1
inhibition of ACh-evoked currents [4]: failed to inhibit | inhibition of ACh-evoked currents [5]: failed to inhibit | inhibition of the ACh-evoked current [6]: 14±2% | lower potency to inhibit α3α5β4 [7]: > 5 fold | inhibition of ACh-induced current amplitude [8]: ~50% | antagonism of ACh-evoked currents [9]: did not antagonise ACh-evoked currents | detectable response alone (>50 nA) [9]: nor elicit a detectable response alone | IC50 [10]: 4.2 µM | affinity for α9, α10 nAchR relative to α3, β4 nAchR [11]: one hundred fold higher | IC50 ([11]; read-out: affinity for the α9, α10 nAchR): 0.0229 µM | time after dosing at which anti allodynic effect was observed [12]: ≤ 1 h | effect on neuropathic pain in three rat models [13]: alleviate neuropathic pain | functional recovery of injured neurons [13]: accelerate the functional recovery of injured neurons | effect on nicotine-induced increase in axonal excitability [14]: antagonize | analgesic activity relative to Ziconotide [15]: more active than Ziconotide | efficacy in an animal model of inflammatory pain [16]: effective

CC[C@H](C)[C@@H]1NC(=O)[C@H](CCC(=O)O)NC(=O)[C@@H]2CCCN2C(=O)[C@H](Cc2c[nH]cn2)NC(=O)[C@H](CC(=O)O)NC(=O)[C@H](Cc2ccc(O)cc2)NC(=O)[C@H](CC(N)=O)NC(=O)[C@@H]2CSSC[C@@H]3NC(=O)CNC(=O)CNC(=O)CNC(=O)[C@H](C)NC(=O)[C@H](C)NC(=O)CNC(=O)CNC(=O)[C@H](CSSC[C@H](NC3=O)C(=O)N[C@@H](CO)C(=O)N[C@@H](CC(=O)O)C(=O)N3CCC[C@H]3C(=O)N[C@@H](CCCNC(=N)N)C(=O)N2)NC1=O [cVc1.1-6]
inhibition of catecholamine release, activity relative to linear Vc1.1 [17]: identical, within experimental error | ED50 [18]: ~1 mg/kg
